Measured values taken from patent US7674613B2, “Live bacterium preparation containing lactic acid bacterium as active ingredient and food containing lactic acid bacterium” (Frente International Co., Ltd., priority 2002, dated 2010).

How the values were obtained:
[1] = tested on: Streptococcus mutans MT 8148 strain; experiment: Test Example 4: insoluble glucan production by S. mutans with oligosaccharides and sugar alcohols, with or without L. salivarius TI 2711; format: cell-based
Method: (§1) 5% each of xylitol, erythritol and sorbitol as sugar alcohols, and fructo-oligosaccharide and kestose as oligosaccharides were each added to a liquid medium consisting of GAM bouillon (Nissui) as a base medium and containing 0.7% glucose and 3% sucrose, and each medium was inoculated with 1×10^7 CFU/ml of the Streptococcus mutans MT 8148 strain. Then, aerobic culture was performed at 37° C. for 24 hours.
(§2) On the other hand, 1×10^7 CFU/ml of the Streptococcus mutans MT 8148 strain was inoculated to the aforementioned medium containing 5% of each sugar alcohol or oligosaccharide, and 1×10^7 CFU/ml of the Lactobacillus salivarius TI 2711 strain was further inoculated to the medium. Then, aerobic culture was similarly performed at 37° C. for 24 hours. After completion of the culture, the cell numbers of Streptococcus mutans MT 8148 strain and amounts of insoluble glucan were determined (according to the methods described in Test Example 1) for the both types of culture.

[2] = tested on: Streptococcus mutans MT 8148 strain; experiment: Test Example 4: number of viable S. mutans with oligosaccharides and sugar alcohols, with or without L. salivarius TI 2711; format: cell-based; conditions: 5% addition, aerobic 37° C. 24 hours
Method: as §1, §2

[3] = With inoculation of L. salivarius TI 2711 1×10^7 CFU/ml
[4] = Without inoculation of L. salivarius, control base medium 4.0 × 10^5

Row | SMILES | inhibition of the production of insoluble glucan ([1]; erythritol alone, 5% addition) | inhibition of the production of insoluble glucan ([1]; mixed culture inoculated with Lactobacillus salivarius TI 2711 strain, amount without inoculation taken as 100%) | Number of viable cells of S. mutans (CFU/ml) [2, 3] | Number of viable cells of S. mutans (CFU/ml) [2, 4]
1 | OC[C@@H](O)[C@@H](O)CO [Erythritol, erythritol] | about 60% | 90% | 1.0 × 10^4 CFU/ml | 1.0 × 10^5 CFU/ml
2 | OC[C@@H](O)[C@@H](O)[C@H](O)[C@@H](O)CO [Sorbitol, sorbitol] | – | – | 3.0 × 10^5 CFU/ml | 4.0 × 10^5 CFU/ml
3 | OC[C@H]1O[C@@](CO)(OC[C@@]2(O[C@H]3O[C@H](CO)[C@@H](O)[C@H](O)[C@H]3O)O[C@H](CO)[C@@H](O)[C@@H]2O)[C@@H](O)[C@@H]1O [Kestose, kestose] | – | – | 2.0 × 10^5 CFU/ml | 5.0 × 10^5 CFU/ml
4 | OC[C@@H](O)[C@H](O)[C@@H](O)CO [Xylitol, xylitol] | – | – | 5.0 × 10^5 CFU/ml | 4.0 × 10^5 CFU/ml
